pIC50, pKi: −log10 of the molar value. Active and inactive are the calls of the source. The rule behind the calls is not given here.
What was measured:
[1] = target: Acetylcholinesterase (Homo sapiens, UniProt P22303); experiment: Inhibition of human recombinant AChe using acetylthiocholine iodide as substrate incubated for 10 mins by DTNB reagent based Ellman's method
[2] = target: Cholinesterase (Homo sapiens, UniProt P06276); experiment: Inhibition of human recombinant BuChe using butyrylthiocholine iodide as substrate incubated for 10 mins by DTNB reagent based Ellman's method
Sequence of Cholinesterase (P06276 whole entry): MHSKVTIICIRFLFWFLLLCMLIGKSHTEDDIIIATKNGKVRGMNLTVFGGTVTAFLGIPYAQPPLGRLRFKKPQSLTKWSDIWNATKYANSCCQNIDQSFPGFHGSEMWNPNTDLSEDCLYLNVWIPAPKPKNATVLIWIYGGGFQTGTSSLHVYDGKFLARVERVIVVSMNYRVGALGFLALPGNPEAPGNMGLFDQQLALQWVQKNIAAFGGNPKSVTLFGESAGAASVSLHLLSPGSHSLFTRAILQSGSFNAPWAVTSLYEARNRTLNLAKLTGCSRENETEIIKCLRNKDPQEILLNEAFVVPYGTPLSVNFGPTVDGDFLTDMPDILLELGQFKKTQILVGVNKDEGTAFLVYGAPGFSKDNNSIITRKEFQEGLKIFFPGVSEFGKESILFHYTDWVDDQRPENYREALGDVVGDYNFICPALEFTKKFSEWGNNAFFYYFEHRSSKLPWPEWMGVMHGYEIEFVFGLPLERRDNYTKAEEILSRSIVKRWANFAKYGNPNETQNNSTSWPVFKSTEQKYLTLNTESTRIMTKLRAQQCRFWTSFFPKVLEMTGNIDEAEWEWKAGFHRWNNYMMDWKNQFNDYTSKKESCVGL

[3] = target: Sigma non-opioid intracellular receptor 1 (Cavia porcellus, UniProt Q60492); assay type: cell membranes, Brain, Membrane;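 also: radioligand displacement of [3H]-(+)-pentazocine binding to sigma1 receptor in guinea pig brain membranes, read by scintillation counting after a 120 min incubation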
Sequence of Sigma non-opioid intracellular receptor 1 (Q60492 whole entry): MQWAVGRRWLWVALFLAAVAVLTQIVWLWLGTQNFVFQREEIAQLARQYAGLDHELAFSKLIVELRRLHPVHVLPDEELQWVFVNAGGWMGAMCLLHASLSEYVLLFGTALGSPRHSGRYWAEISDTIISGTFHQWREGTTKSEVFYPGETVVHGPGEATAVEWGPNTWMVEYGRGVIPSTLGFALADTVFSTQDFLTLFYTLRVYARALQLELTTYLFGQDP
Description: Displacement of [3H]-(+)-pentazocine from sigma1 receptor in guinea pig brain membrane measured after 120 mins by scintillation counting method

[4] = target: T1, Sigma intracellular receptor 2 (Rattus norvegicus, UniProt Q5U3Y7); experiment: Displacement of [3H]DTG from sigma 2 receptor in rat liver membranes measured after 120 mins by scintillation counting method; assay type: cell membranes, Membrane
T1 sequence (Q5U3Y7 whole entry): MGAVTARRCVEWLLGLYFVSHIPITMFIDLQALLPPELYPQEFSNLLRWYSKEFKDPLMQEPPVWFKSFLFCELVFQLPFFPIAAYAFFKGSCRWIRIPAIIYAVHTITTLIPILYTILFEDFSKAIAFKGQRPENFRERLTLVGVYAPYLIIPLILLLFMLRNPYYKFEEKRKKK

[5] = target: Glutamate receptor ionotropic, NMDA 2B (Homo sapiens, UniProt Q13224); experiment: Displacement of [3H]ifenprodil from recombinant human GluN2B NMDA receptor (unknown origin) expressed in dexamethasone-induced mouse L-M(TK-) cell after 120 mins by microbeta scintillation counting method; assay type: cell-based
Sequence of Glutamate receptor ionotropic, NMDA 2B (Q13224 whole entry): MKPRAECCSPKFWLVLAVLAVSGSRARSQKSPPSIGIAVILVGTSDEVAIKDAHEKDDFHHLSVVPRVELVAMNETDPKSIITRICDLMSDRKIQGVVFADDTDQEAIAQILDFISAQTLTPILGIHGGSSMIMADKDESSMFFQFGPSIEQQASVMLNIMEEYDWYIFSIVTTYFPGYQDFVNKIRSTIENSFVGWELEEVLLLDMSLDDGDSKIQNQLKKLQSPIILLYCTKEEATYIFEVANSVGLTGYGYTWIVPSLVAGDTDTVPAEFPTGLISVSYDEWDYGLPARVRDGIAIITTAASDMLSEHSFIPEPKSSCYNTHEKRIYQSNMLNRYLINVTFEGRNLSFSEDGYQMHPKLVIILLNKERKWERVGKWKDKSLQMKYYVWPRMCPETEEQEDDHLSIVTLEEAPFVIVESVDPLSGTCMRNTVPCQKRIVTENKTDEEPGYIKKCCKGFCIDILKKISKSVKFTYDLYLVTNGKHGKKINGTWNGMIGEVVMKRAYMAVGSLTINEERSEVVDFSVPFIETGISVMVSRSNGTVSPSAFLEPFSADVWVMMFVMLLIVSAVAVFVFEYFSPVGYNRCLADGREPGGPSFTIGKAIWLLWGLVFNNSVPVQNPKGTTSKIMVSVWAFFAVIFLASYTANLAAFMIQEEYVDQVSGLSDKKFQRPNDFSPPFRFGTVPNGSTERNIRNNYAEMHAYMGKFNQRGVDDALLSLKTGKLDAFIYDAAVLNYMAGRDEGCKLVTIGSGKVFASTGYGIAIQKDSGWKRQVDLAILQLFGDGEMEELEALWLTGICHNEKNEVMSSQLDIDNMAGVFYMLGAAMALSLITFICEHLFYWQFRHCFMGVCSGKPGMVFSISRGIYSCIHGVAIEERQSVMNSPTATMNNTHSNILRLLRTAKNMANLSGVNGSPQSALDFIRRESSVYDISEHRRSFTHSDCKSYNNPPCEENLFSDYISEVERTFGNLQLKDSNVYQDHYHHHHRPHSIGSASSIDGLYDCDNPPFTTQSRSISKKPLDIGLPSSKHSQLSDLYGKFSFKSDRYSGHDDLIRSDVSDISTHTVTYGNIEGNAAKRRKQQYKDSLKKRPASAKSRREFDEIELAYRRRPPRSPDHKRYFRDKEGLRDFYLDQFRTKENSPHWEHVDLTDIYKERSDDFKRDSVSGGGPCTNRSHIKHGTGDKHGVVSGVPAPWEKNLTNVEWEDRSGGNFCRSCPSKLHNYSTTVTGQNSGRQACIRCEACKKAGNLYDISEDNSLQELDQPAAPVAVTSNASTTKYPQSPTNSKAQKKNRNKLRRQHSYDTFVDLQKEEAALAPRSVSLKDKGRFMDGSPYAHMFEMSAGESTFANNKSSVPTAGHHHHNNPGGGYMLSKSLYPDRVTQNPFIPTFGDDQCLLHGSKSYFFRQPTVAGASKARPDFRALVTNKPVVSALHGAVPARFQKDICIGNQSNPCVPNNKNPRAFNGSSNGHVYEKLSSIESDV

[6] = Selectivity index, ratio of Ki for displacement of [3H]DTG from sigma 2 receptor in rat liver membranes to Ki for displacement of [3H]-(+)-pentazocine from sigma1 receptor in guinea pig brain membrane; assay type: cell membranes
[7] = target: T2, P2X purinoceptor 7 (Homo sapiens, UniProt Q99572); experiment: Antagonist activity at human P2X7 receptor expressed in HEK293 cells assessed as reduction in YO-PRO-1 iodide dye uptake preincubated for 30 mins followed by YO-PRO-1 iodide addition and measured after 120 mins by fluorescence plate reader analysis; assay type: cell-based
T2 sequence (Q99572 whole entry): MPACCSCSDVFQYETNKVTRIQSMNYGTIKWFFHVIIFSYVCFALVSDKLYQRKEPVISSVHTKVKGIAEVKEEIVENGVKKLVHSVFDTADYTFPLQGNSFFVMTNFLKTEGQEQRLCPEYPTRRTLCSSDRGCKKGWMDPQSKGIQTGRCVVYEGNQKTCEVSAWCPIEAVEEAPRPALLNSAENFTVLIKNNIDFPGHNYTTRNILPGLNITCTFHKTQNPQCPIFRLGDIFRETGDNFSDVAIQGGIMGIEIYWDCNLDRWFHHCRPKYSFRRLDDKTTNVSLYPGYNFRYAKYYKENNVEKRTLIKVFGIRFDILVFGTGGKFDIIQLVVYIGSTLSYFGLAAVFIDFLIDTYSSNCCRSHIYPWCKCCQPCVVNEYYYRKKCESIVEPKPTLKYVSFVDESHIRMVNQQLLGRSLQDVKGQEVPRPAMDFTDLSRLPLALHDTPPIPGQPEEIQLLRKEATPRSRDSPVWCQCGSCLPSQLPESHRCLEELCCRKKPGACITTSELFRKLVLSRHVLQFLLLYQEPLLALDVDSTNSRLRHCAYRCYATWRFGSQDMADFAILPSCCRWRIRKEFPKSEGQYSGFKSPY

[8] = Selectivity index, ratio of Ki for displacement of [3H]-(+)-pentazocine from sigma1 receptor in guinea pig brain membrane to Ki for displacement of [3H]DTG from sigma 2 receptor in rat liver membranes; assay type: cell membranes
[9] = tested on: SH-SY5Y; experiment: Neuroprotective activity in H2O2 induced stress human SH-SY5Y cell model measured after 48 hrs by MTT assay; assay type: functional, cell-based
[10] = tested on: SH-SY5Y; experiment: Neuroprotective activity in Abeta42 induced stress human SH-SY5Y cell model measured after 72 hrs by CTG luminescence assay; assay type: functional, cell-based
[11] = species: Danio rerio; experiment: Neuroprotective activity against Abeta42 induced zebrafish AD model assessed as reversal of reduction in synaptic integrity at 10 uM measured after 5 days; assay type: functional, organism-based; settings: time 5.0 day
[12] = species: Danio rerio; experiment: Neuroprotective activity against zebrafish AD model assessed as reversal of reduction in synaptic integrity at 10 uM measured after 5 days in presence of Abeta42 relative to control; assay type: functional; parameters: scale not given: the % may be the effect or the level left; settings: time 5 day
[13] = species: Danio rerio; experiment: Neuroprotective activity against zebrafish AD model assessed as reversal of reduction in synaptic integrity at 10 uM measured after 5 days relative to control; assay type: functional; parameters: scale not given: the % may be the effect or the level left; settings: time 5 day
[14] = tested on: PC-12; experiment: Neuroprotective activity in […] PC-12 cells assessed as induction of NGF-mediated neurite sprouting measured after 4 days by measuring fold change; assay type: functional, Rattus norvegicus; settings: time 4 day
[15] = species: Danio rerio; experiment: Anti-neuroinflammatory activity in Abeta42 induced zebrafish AD model assessed as reduction in number of activated microglia relative to control; assay type: functional; parameters: scale not given: the % may be the effect or the level left
[16] = Hepatotoxicity in […] cells assessed as reduction in cell viability at 10 to 80 uM measured after 24 hrs by CTG- luminescence assay; assay type: toxicity, cell-based; settings: human
[17] = tested on: SH-SY5Y; experiment: Glio-protective activity in H2O2 induced human SH-SY5Y cells measured after 48 hrs by MTT assay; assay type: functional, cell-based
[18] = tested on: SH-SY5Y; experiment: Glio-protective activity in Abeta42 induced stress human SH-SY5Y cells measured after 72 hrs by CTG luminescence assay; assay type: functional, cell-based
[19] = target: Cytochrome P450 3A4 (Homo sapiens, UniProt P08684); experiment: Inhibition of CYP3A4 (unknown origin) preincubated for 10 mins followed by NADP addition measured after 50 mins; assay type: ADME
Sequence of Cytochrome P450 3A4 (P08684 whole entry): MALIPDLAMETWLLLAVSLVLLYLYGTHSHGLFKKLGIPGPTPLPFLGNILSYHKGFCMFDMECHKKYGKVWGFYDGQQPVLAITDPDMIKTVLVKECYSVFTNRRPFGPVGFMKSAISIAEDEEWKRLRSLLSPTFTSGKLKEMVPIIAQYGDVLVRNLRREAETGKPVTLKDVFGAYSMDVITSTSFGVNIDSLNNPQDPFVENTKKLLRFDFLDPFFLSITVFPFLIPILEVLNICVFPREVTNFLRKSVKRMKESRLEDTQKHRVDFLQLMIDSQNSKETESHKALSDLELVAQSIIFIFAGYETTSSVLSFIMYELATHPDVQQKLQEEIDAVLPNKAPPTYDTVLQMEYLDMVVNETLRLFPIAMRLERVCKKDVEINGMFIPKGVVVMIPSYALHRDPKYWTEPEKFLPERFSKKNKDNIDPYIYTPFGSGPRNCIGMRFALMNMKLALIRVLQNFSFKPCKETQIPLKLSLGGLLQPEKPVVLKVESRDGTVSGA

[20] = target: Cytochrome P450 2C9 (Homo sapiens, UniProt P11712); experiment: Inhibition of CYP2C9 (unknown origin) preincubated for 10 mins followed by NADP addition measured after 50 mins; assay type: ADME
Sequence of Cytochrome P450 2C9 (P11712 whole entry): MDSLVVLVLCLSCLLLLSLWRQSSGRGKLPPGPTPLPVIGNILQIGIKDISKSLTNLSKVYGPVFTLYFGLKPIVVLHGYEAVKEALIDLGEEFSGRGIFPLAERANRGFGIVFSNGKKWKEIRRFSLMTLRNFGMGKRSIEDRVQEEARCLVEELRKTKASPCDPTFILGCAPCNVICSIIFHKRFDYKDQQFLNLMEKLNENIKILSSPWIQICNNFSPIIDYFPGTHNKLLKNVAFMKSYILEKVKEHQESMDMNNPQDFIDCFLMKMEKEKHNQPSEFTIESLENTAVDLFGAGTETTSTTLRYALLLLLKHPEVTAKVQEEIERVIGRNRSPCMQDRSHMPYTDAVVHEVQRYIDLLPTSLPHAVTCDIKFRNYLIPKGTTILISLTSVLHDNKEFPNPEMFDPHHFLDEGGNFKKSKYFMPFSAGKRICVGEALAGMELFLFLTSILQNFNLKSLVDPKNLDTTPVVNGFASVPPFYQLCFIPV

[21] = target: Cytochrome P450 2D6 (Homo sapiens, UniProt P10635); experiment: Inhibition of CYP2D6 (unknown origin) preincubated for 10 mins followed by NADP addition measured after 50 mins; assay type: ADME
Sequence of Cytochrome P450 2D6 (P10635 whole entry): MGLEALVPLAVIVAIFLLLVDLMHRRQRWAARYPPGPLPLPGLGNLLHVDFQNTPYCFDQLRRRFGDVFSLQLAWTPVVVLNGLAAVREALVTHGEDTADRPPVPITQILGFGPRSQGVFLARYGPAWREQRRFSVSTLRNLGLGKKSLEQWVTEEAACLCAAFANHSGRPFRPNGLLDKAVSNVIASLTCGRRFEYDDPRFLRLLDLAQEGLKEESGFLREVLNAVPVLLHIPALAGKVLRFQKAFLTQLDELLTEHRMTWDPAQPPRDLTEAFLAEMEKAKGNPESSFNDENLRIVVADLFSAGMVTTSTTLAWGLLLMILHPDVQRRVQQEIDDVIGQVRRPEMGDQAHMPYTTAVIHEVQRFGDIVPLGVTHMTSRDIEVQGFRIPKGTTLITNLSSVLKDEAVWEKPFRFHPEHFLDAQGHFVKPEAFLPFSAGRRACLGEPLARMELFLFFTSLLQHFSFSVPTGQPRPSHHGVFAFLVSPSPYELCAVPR

[22] = tested on: PC-12; experiment: Neuroprotective activity in […] PC-12 cells assessed as induction of NGF-mediated neurite outgrowth measured after 4 days by measuring fold change; assay type: functional, Rattus norvegicus; settings: time 4 day
[23] = Cytotoxicity against HEK293 cells assessed as reduction in cell viability at 10 to 80 uM measured after 24 hrs by CTG- luminescence assay; assay type: toxicity, cell-based; settings: human
[24] = Permeability of the compound across blood brain barrier at pH 7.4 incubated for 16 hrs by PAMPA assay; assay type: ADME; settings: read-out: permeability
[25] = Permeability of the compound at pH 6.8 by HDM-PAMPA assay; assay type: ADME; settings: read-out: permeability

Sequence of Acetylcholinesterase (P22303 whole entry): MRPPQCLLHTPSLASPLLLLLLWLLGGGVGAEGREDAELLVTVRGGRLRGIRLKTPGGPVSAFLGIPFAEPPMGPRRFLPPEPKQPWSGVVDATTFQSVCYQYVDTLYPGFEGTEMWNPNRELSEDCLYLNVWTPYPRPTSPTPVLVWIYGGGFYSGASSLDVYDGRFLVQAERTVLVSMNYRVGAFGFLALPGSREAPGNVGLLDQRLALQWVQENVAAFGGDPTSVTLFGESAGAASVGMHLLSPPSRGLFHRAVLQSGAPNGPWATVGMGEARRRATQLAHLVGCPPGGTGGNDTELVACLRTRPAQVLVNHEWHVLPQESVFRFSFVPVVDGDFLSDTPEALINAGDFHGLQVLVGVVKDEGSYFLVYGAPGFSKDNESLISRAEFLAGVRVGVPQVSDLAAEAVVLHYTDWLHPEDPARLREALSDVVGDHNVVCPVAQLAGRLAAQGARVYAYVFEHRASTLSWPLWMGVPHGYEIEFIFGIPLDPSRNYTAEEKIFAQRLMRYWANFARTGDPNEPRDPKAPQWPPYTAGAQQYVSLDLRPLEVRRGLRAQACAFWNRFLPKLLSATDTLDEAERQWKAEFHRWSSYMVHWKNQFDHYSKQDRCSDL

Cc1ccccc1N1CCN(CCC(=O)Nc2nc3c(C)cccc3s2)CC1
pIC50 [1]: < 4.40 | pIC50 [2]: 5.06 | pKi [3]: 6.00 | pKi [4]: < 6.00 | pKi [5]: < 6.00

Cc1cccc2sc(NC(=O)CCN3CCN(C(C)C)CC3)nc12
pIC50 [1]: 5.56 | pIC50 [2]: 4.84 | pKi [3]: 5.89 | pKi [4]: 5.74 | Ratio Ki [6]: 1.38 | pKi [5]: < 6.00

Cc1cccc2sc(NC(=O)CCN3CCN(c4ccccn4)CC3)nc12
pIC50 [1]: 4.76 | pIC50 [2]: < 4.40 | pKi [3]: 6.00 | pKi [4]: < 6.00 | pKi [5]: < 6.00 | pIC50 [7]: 5.85

Cc1cccc2sc(NC(=O)CCN3CCN(Cc4ccccc4F)CC3)nc12
pIC50 [1]: 5.28 | pIC50 [2]: 5.54 | pKi [3]: 5.77 | pKi [4]: < 6.00 | pKi [5]: < 6.00

CCN1CCN(CCC(=O)Nc2nc3c(C)cccc3s2)CC1
pIC50 [1]: 4.69 | pIC50 [2]: < 4.40 | pKi [3]: 6.27 | pKi [4]: 5.92 | Ratio Ki [6]: 2.21 | pKi [5]: < 6.00

CCOCCN1CCN(CCC(=O)Nc2nc3c(C)cccc3s2)CC1
pIC50 [1]: 4.70 | pIC50 [2]: 4.41 | pKi [3]: 6.24 | pKi [4]: 5.80 | Ratio Ki [6]: 2.78 | pKi [5]: < 6.00

Cc1cccc2sc(NC(=O)CCN3CCN(c4ncccn4)CC3)nc12
pIC50 [1]: 4.52 | pIC50 [2]: < 4.40 | pKi [3]: 6.30 | pKi [4]: < 6.00 | Ratio Ki [6]: > 1.98 | pKi [5]: < 6.00 | pIC50 [7]: 5.88

CCCCN1CCN(CCC(=O)Nc2nc3c(C)cccc3s2)CC1
pIC50 [1]: < 4.40 | pIC50 [2]: 4.52 | pKi [3]: 6.69 | pKi [4]: 5.92 | Ratio Ki [6]: 5.88 | pKi [5]: 6.64

Cc1cccc2sc(NC(=O)CCN3CCN(CCN(C(C)C)C(C)C)CC3)nc12
pIC50 [1]: 6.62 | pIC50 [2]: < 4.40 | pKi [3]: 6.09 | pKi [4]: 6.92 | Ratio Ki [8]: 6.68 | pKi [5]: 6.69 | Activity [9]: Active | Activity [10]: Active | Activity [11]: Active | Activity [12]: 37.1% | Activity [13]: 15.1% | fold change (FC) [14]: 3.7

Cc1cccc2sc(NC(=O)CCN3CCN(C4CCN(C)CC4)CC3)nc12
pIC50 [1]: 4.98 | pIC50 [2]: < 4.40 | pKi [3]: 5.22 | pKi [4]: 5.44 | Ratio Ki [8]: 1.66 | pKi [5]: < 6.00

COc1cc2c(cc1OC)C(=O)C(CC1CCN(Cc3ccccc3)CC1)C2 (stereo not given) [DONEPEZIL]
Activity [15]: 4.3%

Cc1cccc2sc(NC(=O)CCN3CCN(C(C)(C)C)CC3)nc12
pIC50 [1]: 6.09 | pIC50 [2]: < 4.40 | pKi [3]: 6.83 | pKi [4]: 6.70 | Ratio Ki [6]: 1.36 | pKi [5]: 6.32

Cc1cccc2sc(NC(=O)CCN3CCN(C4CCCCC4)CC3)nc12
pIC50 [1]: 4.96 | pIC50 [2]: 5.50 | pKi [3]: 7.62 | pKi [4]: 6.63 | Ratio Ki [6]: 9.71 | pKi [5]: 6.67 | IC50 at 24 h [16]: 47100 nM | Activity [17]: Active | Activity [18]: Active | Activity [11]: Active

Cc1cccc2sc(NC(=O)CCN3CCN(Cc4ccc(C(C)(C)C)cc4)CC3)nc12
pIC50 [1]: 4.40 | pIC50 [2]: 5.03 | pKi [3]: 6.62 | pKi [4]: 6.62 | pKi [5]: < 6.00

CCCCCCN1CCN(CCC(=O)Nc2nc3c(C)cccc3s2)CC1
pIC50 [1]: < 4.40 | pIC50 [2]: 4.53 | pKi [3]: 6.62 | pKi [4]: 6.80 | Ratio Ki [8]: 1.5 | pKi [5]: 6.94 | Activity [17]: Active | Activity [18]: Active

Cc1cccc2sc(NC(=O)CCN3CCN(c4ccncc4)CC3)nc12
pIC50 [1]: 4.74 | pIC50 [2]: < 4.40 | pKi [3]: 5.02 | pKi [4]: 5.77 | Ratio Ki [8]: 5.65 | pKi [5]: 6.74 | pIC50 [7]: 5.95 | Activity [9]: Active | Activity [10]: Active | Activity [11]: Active | pIC50 [19]: 5.94 | pIC50 [20]: 5.61 | pIC50 [21]: 4.87 | Activity [15]: 25.9%

Cc1cccc2sc(NC(=O)CCN3CCN(CC4CCCCC4)CC3)nc12
pIC50 [1]: 6.47 | pIC50 [2]: 5.12 | pKi [3]: 7.46 | pKi [4]: 6.28 | Ratio Ki [6]: 14.8 | pKi [5]: 7.22 | IC50 at 24 h [16]: 30700 nM | Activity [9]: Active | Activity [10]: Active | Activity [11]: Active

Cc1cccc2sc(NC(=O)CCN3CCN(Cc4cc(F)ccc4F)CC3)nc12
pIC50 [1]: 4.90 | pIC50 [2]: 5.12 | pKi [3]: 6.00 | pKi [4]: < 6.00 | pKi [5]: < 6.00

Cc1cccc2sc(NC(=O)CCN3CCN(CCN(C)C)CC3)nc12
pIC50 [1]: 6.32 | pIC50 [2]: < 4.40 | pKi [3]: 6.00 | pKi [4]: < 6.00 | pKi [5]: < 6.00 | pIC50 [7]: 5.67

CC(=O)c1ccc(N2CCN(CCC(=O)Nc3nc4c(C)cccc4s3)CC2)cc1
pIC50 [1]: 5.42 | pIC50 [2]: 5.52 | pKi [3]: 6.00 | pKi [4]: < 6.00 | pKi [5]: 6.73

Cc1cccc2sc(NC(=O)CCN3CCN(Cc4cccc5ccccc45)CC3)nc12
pIC50 [1]: 4.71 | pIC50 [2]: 4.48 | pKi [3]: 6.00 | pKi [4]: < 6.00 | pKi [5]: < 6.00

Cc1cccc2sc(NC(=O)CCN3CCN(CC4CCCO4)CC3)nc12 (racemic)
pIC50 [1]: 5.10 | pIC50 [2]: 4.89 | pKi [3]: 6.96 | pKi [4]: 5.30 | Ratio Ki [6]: 45.9 | pKi [5]: 6.34 | IC50 at 24 h [16]: 46300 nM | Activity [9]: Active | Activity [10]: Active | Activity [11]: Active | fold change (FC) [22]: 2.4

Cc1cccc2sc(NC(=O)CCN3CCN(CCCN(C)C)CC3)nc12
pIC50 [1]: 6.39 | pIC50 [2]: < 4.40 | pKi [3]: 6.24 | pKi [4]: < 6.00 | Ratio Ki [6]: > 1.75 | pKi [5]: 5.74 | pIC50 [7]: 4.74 | IC50 at 24 h [23]: 20500 nM | Activity [9]: Active | Activity [10]: Active | Activity [11]: Active | Papp at 16 h [24]: 4 ×10⁻⁶ cm/s | Papp [25]: 4.5 ×10⁻⁶ cm/s | Activity [15]: 33.1%
